According to US10525069B2, “Treatment of urinary tract infection” (BIOMEDICALS SWEDEN AB, priority 2014, dated 2020):

Tested on: UTI
Assay: Clinical course of UTI (occurrence, relapse, symptoms) in treated women
Type: in vivo, human
Conditions: Example 4: person, antibiotic received twice, before treatment with the composition
Experimental: One wheelchair-bound person, with recurrent UTI (UTI every week) was treated according to an embodiment of the invention. Prior to the treatment, the urine of the person was tested using bacteria test strips (NITRISTIC®, RAERAD Products, Sweden) following the instructions from the manufacturer. […] The person was given a composition with 1 g calcium carbonate (pH-KALK, pH Balans AB, Sweden) together with 2 g D-mannose (DM, BECKMAN-KENKO GMBH, Germany) or 1 g citric acid (SANTA MARIA AB, Sweden) together with 2 g D-mannose (DM, BECKMAN-KENKO GMBH, Germany). The compositions were taken in an alternating administration pattern 5 times per day (see Table 2 for details). The initial treatment lasted for 4 days. […] After the initial treatment, the person continued with the treatment to prevent UTI according to Table 2 alternating pH three times a day for five months. […] After discontinuing the treatment, the person relapsed with UTI within 3 weeks.
Prior to the treatment, the urine was tested using bacteria test strips (NITRISTIC®, RAERAD Products, Sweden) following the instructions from the manufacturer.
The person was then treated according to an embodiment of the invention (see Table 4 for details). […] Furthermore the bacteria test strips were negative.

CC(C)(C)C(=O)OCOC(=O)[C@@H]1N2C(=O)[C@@H](/N=C/N3CCCCCC3)[C@H]2SC1(C)C [SELEXID]
result of antibiotic treatment against UTI: no apparent results
